Measured values reported in paper PMC11249646, “Small-Molecule Disruptors of the Interaction between Calcium- and Integrin-Binding Protein 1 and Integrin αIIbβ3 as Novel Antiplatelet Agents” (ACS Pharmacology & Translational Science, 2024).
Like-named read-outs stand apart in the source and are kept apart here.

Target: T1, CIB1 and αIIb interaction (CIB1-GST : F-αIIb peptide) (Homo sapiens, UniProt Q99828)
T1 construct: made in house; host or cells: BL-21 plus RIL cells (E. coli)
T1 sequence (Q99828 1-191): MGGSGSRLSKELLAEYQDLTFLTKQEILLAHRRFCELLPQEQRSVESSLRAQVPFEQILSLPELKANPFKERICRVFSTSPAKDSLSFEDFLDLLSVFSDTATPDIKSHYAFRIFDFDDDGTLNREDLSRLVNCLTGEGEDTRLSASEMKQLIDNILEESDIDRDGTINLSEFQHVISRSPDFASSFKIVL
Experiment: FP assay, 1536-well qHTS format (primary and confirmatory screen)
Type: binding
Settings: for Curve Class: negative sign = inhibitory curve

[1] = qHTS primary screen hits, Table S2, negative = inhibition
[2] = qHTS primary screen hits, Table S2
[3] = qHTS primary screen hits, Table S2, read-out: IC50
[4] = qHTS primary screen hits, Table S2, several classes where COUNT > 1
[5] = qHTS FP screen hits, Table S2, negative = inhibition
[6] = qHTS FP screen hits, Table S2, read-out: IC50
[7] = qHTS primary screen of LOPAC/NPACT libraries, negative = inhibition
[8] = qHTS primary screen of LOPAC/NPACT libraries
[9] = qHTS primary screen of LOPAC/NPACT libraries, read-out: IC50

Efficacy (%) [1] [%] | IC50 [3] [µM] | Curve Class [4] | SMILES | further results
-37 | 56.2 | -2.4 | Oc1ccc(Cl)c2cccnc12 [NCGC00095303-04] | –
-50 | 50.1 | -2.2 | Cc1c(Cl)cccc1-n1c(CCC(=O)O)ccc1-c1cccs1 [NCGC00100415-03] | –
-33 | 50.1 | – | Cc1cc(Cl)ccc1-n1c(CCC(=O)O)ccc1-c1cccs1 [NCGC00100435-03] | Curve Class [2]: -2.2
-18 | 21.3 | – | NC[C@H](O)c1ccc(O)c(O)c1 [NCGC00159406-07] | –
-94 | 100 | – | CC(C)=CCOc1ccc(/C=C/C(=O)c2ccc(OCC=C(C)C)cc2OCC(=O)O)cc1 [NCGC00159481-03] | Curve Class [2]: -3
-54 | 42.2 | – | COCCCOc1ccnc(C[S+]([O-])c2nc3ccccc3[n-]2)c1C.[Na+] (centres unmarked) [NCGC00159518-05] | –
-44 | 89.1 | – | O=C(CS)Nc1ccccc1 [NCGC00160366-02] | Curve Class [2]: -3
-60 | 56.2 | -2.4 | CN1CCN(CCC(=O)N2c3ccccc3Sc3ccc(C(F)(F)F)cc32)CC1.Cl [NCGC00160483-02] | –
-26 | 50.1 | -2.4 | COC1=C(OC)C(=O)C(CCCCCCCCCCO)=C(C)C1=O [NCGC00160514-02] | –
-32 | 79.4 | -2.4 | CSc1ccc(/C=C2/C(C)=C(CC(=O)O)c3cc(F)ccc32)cc1 [NCGC00161601-02] | –
-29 | 50.1 | -2.4 | Cc1ccc(S(=O)(=O)Nc2cc(S(=O)(=O)c3ccc(C)cc3)c(O)c3cccnc23)cc1 [NCGC00161699-01] | –
-37 | 50.1 | -2.4 | O=S(=O)(Nc1cc(O)cc2cccnc12)c1ccc(Cl)s1 [NCGC00161701-01] | –
-40 | 56.2 | -2.4 | COc1cc(NS(=O)(=O)c2ccc([N+](=O)[O-])cc2)c2ncccc2c1 [NCGC00161705-01] | –
-35 | 56.2 | -2.4 | COc1cc(NS(=O)(=O)c2cccc([N+](=O)[O-])c2)c2ncccc2c1 [NCGC00161706-01] | –
-21 | 44.7 | -2.4 | O=C(O)c1ccc(S(=O)(=O)N[C@@H](Cc2ccc(O)cc2)C(=O)O)cc1 [NCGC00161808-01] | –

More lines, now with the values behind:

SMILES | Efficacy (%) [1] [%] | IC50 [3] [µM] | Curve Class [4] | further results
Cc1ccc(N)cc1O [NCGC00090702-02] | -38 | 126 | – | Curve Class [2]: -2.2
Oc1cccc2cccnc12 [NCGC00090708-05] | – | – | – | Efficacy (%): -29%; IC50 (IC50 [μM]): 117 µM
CC/C(=C(/CC)c1ccc(O)cc1)c1ccc(O)cc1 [NCGC00090749-11] | -29 | 42.9 | -2.4 | –
Nc1ccccc1N [NCGC00090885-03] | -77 | 113 | – | –
O=C(O)c1cc(/N=N/c2ccc(S(=O)(=O)Nc3ccccn3)cc2)ccc1O [NCGC00090903-11] | – | – | – | Efficacy (%) [5]: -43%; Curve Class (qHTS FP screen hits, Table S2, one class per curve where COUNT > 1): -2.2; IC50 [6]: 25.1 µM
CCCCCCCCCCCC[N+](C)(C)CCOc1ccccc1.[Br-] [NCGC00091010-03] | -55 | 89.1 | – | Curve Class [2]: -3
CCCCCCCCCCCCCCCC[n+]1ccccc1.[Br-] [NCGC00091023-06] | -31 | 89.1 | -2.4 | –
COc1cc([C@H]2Oc3cc([C@H]4Oc5cc(O)cc(O)c5C(=O)[C@@H]4O)ccc3O[C@@H]2CO)ccc1O [NCGC00091057-06] | -74 | 28.5 | – | Curve Class [2]: -2.2
CN(C)c1ccc(C(=C2C=CC(=[N+](C)C)C=C2)c2ccc(N(C)C)cc2)cc1.[Cl-] [NCGC00091112-09] | -60 | 56.2 | – | Curve Class [2]: -2.4
Nc1cccc2c(N)cccc12 [NCGC00091284-03] | -33 | 113 | – | –
Cc1cc2nc3c(=O)[nH]c(=O)nc-3n(C[C@H](O)[C@H](O)[C@H](O)CO)c2cc1C [NCGC00091288-05] | -134 | 4 | – | –
CC[n+]1c(-c2ccccc2)c2cc(N)ccc2c2ccc(N)cc21.[Br-] [NCGC00091387-08] | -61 | 56.2 | -2.4 | –
CCOC(=O)c1c(NC(=O)CN2CCCCC2)sc2c1CCN(C(=O)OCC)C2.O=C(O)C(F)(F)F [NCGC00092717-02] | -31 | 89.1 | – | Curve Class [2]: -2.4
O=C(N[C@@H](Cc1ccccc1)C(=O)CCl)OCc1ccccc1 [NCGC00093742-04] | – | – | – | Efficacy (%) [7]: -19%; Curve Class [8]: -1.2; IC50 [9]: 10 µM
CC(=O)[C@]1(O)Cc2c(O)c3c(c(O)c2[C@@H](O[C@H]2C[C@H](N)[C@H](O)[C@H](C)O2)C1)C(=O)c1ccccc1C3=O [NCGC00093976-06] | -86 | 19.1 | – | –
Nc1ccc(-c2nc3ccc(-c4nc5cc(N)ccc5[nH]4)cc3[nH]2)cc1 [NCGC00094031-06] | -33 | 39.8 | -2.2 | –
C[C@@]1(C2CCCC2)Cc2cc(OCC(=O)O)c(Cl)c(Cl)c2C1=O [NCGC00094034-06] | – | – | – | Efficacy (%) [7]: -28%; Curve Class [8]: -2.2; IC50 [9]: 25.1 µM
N[C@@H](CCC(=O)N[C@H](CSN=O)C(=O)NCC(=O)O)C(=O)O [NCGC00094150-03] | – | – | – | Efficacy (%) [7]: -13%; Curve Class [8]: -1.2; IC50 [9]: 12.6 µM
Oc1cc(O)cc(/C=C/c2ccc(O)c(O)c2)c1 [NCGC00094226-07] | – | – | – | Curve Class [8]: -1.2; IC50 [9]: 3.2 µM
C=C1C(=O)O[C@@H]2[C@H]3O[C@]3(C)CC/C=C(/C)CC[C@@H]12 [NCGC00094250-05] | – | – | – | Efficacy (%) [7]: -19%; Curve Class [8]: -1.2; IC50 [9]: 10 µM
C[C@H](O)C(=O)C1=Nc2c(nc(N)[nH]c2=O)NC1 [NCGC00094391-03] | -40 | 35.5 | – | Curve Class [2]: -2.2
N#CC(=C(\N)Sc1ccccc1N)/C(C#N)=C(/N)Sc1ccccc1N [NCGC00094462-03] | – | – | – | Efficacy (%) [7]: -18%; Curve Class [8]: -3; IC50 [9]: 20 µM
Oc1c(Br)cc(Br)c2cccnc12 [NCGC00094815-05] | -41 | – | -2.2 | –
S=P(N1CC1)(N1CC1)N1CC1 [NCGC00095042-06] | -44 | – | – | IC50 (IC50 [μM]): 126 µM; Curve Class [2]: -2.2
COc1ccc(Nc2cc(C)nc(-n3nc(C)cc3C)n2)cc1Cl.O=C(O)C(F)(F)F [NCGC00134126-02] | -30 | 50.1 | -2.4 | –
Oc1cc(Cl)ccc1Oc1ccc(Cl)cc1Cl [NCGC00159417-06] | -22 | 100 | – | Curve Class [2]: -2.4
CC[PH](CC)(CC)[Au][S][C@@H]1O[C@H](COC(C)=O)[C@@H](OC(C)=O)[C@H](OC(C)=O)[C@H]1OC(C)=O [NCGC00160391-05] | – | – | – | Efficacy (%) [5]: -30%; IC50 [6]: 17.1 µM
O=C(Nc1ccc(Oc2ccc(Cl)cc2)c(Cl)c1)c1cc(I)cc(I)c1O [NCGC00160556-02] | -27 | 89.1 | – | Curve Class [2]: -2.4
CN(C)CC/C=C1/c2ccccc2Sc2cc(Cl)ccc21.Cl [NCGC00162079-02] | – | – | – | Efficacy (%) [7]: -13%; Curve Class [8]: -2.4; IC50 [9]: 70.8 µM
Cc1cc(Cn2cnc3c2C[C@@H](C(=O)O)N(C(=O)C(c2ccccc2)c2ccccc2)C3)ccc1N [NCGC00162092-02] | – | – | – | Efficacy (%) [7]: -10%; Curve Class [8]: -1.4; IC50 [9]: 10 µM
